The values below come from patent EP3383875B1, “3-PYRIMIDINYL PYRROLO [2,3-B] PYRIDINE AS ANTICANCER AGENTS AND THE PROCESS FOR THE PREPARATION THEREOF” (Council Of Scientific & Industrial Research, priority 2015, dated 2017).

Read-outs that look alike come from different tables or passages of the source.

A word on the inhibition: it is the drop in the measured response relative to a control, in per cent.

In assay [1] the target is CDK-2/cyclin A (Homo sapiens, UniProt P24941). Put plainly: CDK inhibition assay, CDK-2/cyclin A against Histone HI, 33P-ATP. In kind it is biochemical. The following applies: at 500 nM. The protocol: Compounds were evaluated for their ability to inhibit CDK2 and CDK9 as given below.
CDK-2/cyclin A (5-20 mU diluted in 50 mM Hepes pH 7.5, 1 mM DTT, 0.02% Brij35, 100 mM NaCl) was assayed against Histone HI in a final volume of 25.5 µl containing 50 mM Hepes pH7.5, 1 mM DTT, 0.02% Brij35, 100 mM NaCl, Histone HI (1 mg/ml), 10 mM magnesium acetate and 0.02 mM [33P-g-ATP](500-1000 cpm/pmole) and incubated for 30 min at room temperature. Assays were stopped by addition of 5 µl of 0.5 M (3%) orthophosphoric acid and then harvested onto P81 Unifilter plates with a wash buffer of 50 mM orthophosphoric acid.

Assay [2] has as its target CDK-9/Cyclin T1 (Homo sapiens, UniProt P50750). Put plainly: CDK inhibition assay, CDK-9/Cyclin T1 against substrate peptide, 33P-ATP. Type of assay: biochemical. The following applies: at 500 nM. The protocol: (50-1000 cpm/pmole) and incubated for 30 min at room temperature. Assays were stopped by addition of 5 µl of 0.5 M (3%) orthophosphoric acid and then harvested onto P81 Unifilter plates with a wash buffer of 50 mM orthophosphoric acid.

Where [3] appears, read: Table-6, read-out: In vitro CDK2 % of inhibition.
[4] abbreviates: read-out: inhibition against CDK2.
[5] abbreviates: Table-6, read-out: In vitro CDK9 % of inhibition.
The mark [6] stands for this setting: read-out: inhibition against CDK9.
Where [7] appears, read: Table-7, read-out: In vitro CDK2 % of inhibition.
[8] abbreviates: Table-7, read-out: In vitro CDK9 % of inhibition.

Sequence of CDK-9/Cyclin T1 (P50750 whole entry): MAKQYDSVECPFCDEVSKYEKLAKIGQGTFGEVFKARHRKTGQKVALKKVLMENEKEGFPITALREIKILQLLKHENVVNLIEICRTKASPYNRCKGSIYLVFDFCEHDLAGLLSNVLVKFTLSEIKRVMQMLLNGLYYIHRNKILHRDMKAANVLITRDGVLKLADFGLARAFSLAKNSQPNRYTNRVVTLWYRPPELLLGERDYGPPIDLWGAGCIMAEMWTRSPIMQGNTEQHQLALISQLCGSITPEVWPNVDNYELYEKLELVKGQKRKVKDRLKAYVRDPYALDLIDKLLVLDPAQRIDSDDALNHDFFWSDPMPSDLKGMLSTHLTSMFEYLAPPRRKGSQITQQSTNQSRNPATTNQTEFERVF
Sequence of CDK-9/Cyclin T1 (O60563 whole entry partner): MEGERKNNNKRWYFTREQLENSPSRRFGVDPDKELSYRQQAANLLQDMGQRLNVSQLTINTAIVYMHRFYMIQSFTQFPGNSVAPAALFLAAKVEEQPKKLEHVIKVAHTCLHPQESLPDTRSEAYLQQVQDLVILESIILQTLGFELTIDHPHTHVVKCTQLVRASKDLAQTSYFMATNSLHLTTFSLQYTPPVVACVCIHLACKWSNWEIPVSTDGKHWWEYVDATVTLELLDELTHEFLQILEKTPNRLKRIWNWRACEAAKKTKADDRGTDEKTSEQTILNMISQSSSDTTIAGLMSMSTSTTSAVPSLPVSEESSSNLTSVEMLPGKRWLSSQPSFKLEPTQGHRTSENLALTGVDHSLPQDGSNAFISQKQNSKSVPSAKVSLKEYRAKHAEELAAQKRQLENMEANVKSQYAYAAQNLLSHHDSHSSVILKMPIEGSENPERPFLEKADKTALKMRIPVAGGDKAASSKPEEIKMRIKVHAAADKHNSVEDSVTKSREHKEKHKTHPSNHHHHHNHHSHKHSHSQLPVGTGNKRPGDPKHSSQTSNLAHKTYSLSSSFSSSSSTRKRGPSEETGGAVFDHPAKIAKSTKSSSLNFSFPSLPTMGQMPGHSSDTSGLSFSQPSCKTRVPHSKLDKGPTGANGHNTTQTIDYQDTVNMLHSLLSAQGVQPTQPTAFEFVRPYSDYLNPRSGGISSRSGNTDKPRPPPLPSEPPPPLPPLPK

For the compound `c1cncc(-c2cnc3[nH]cc(-c4ccnc(NC5CCCC5)n4)c3c2)c1` [1A35, N-cyclopentyl-4-(5-(pyridin-3-yl)-1H-pyrrolo[2,3-b]pyridin-3-yl)pyrimidin-2-amine], the inhibition at 0.5 µM in assay [1] (setting [3]), in assay [1] (setting [4]), in assay [2] (setting [5]) and in assay [2] (setting [6]) was more than 50% throughout.
Turning to `c1cc(-c2c[nH]c3ncc(-c4ccoc4)cc23)nc(NC2CCCC2)n1` [1A36, N-cyclopentyl-4-(5-(furan-3-yl)-1H-pyrrolo[2,3-b]pyridin-3-yl)pyrimidin-2-amine], the inhibition at 0.5 µM in assay [1] (setting [3]), in assay [1] (setting [4]), in assay [2] (setting [5]) and in assay [2] (setting [6]) was more than 50% in each case.
Take `COc1ccc2[nH]c(-c3cnc4[nH]cc(-c5ccnc(NC6CCCC6)n5)c4c3)cc2c1` [1A37, N-cyclopentyl-4-(5-(5-methoxy-1H-indol-2-yl)-1H-pyrrolo[2,3-b]pyridin-3-yl)pyrimidin-2-amine]: the inhibition at 0.5 µM in assay [1] (setting [3]) and in assay [2] (setting [5]) was more than 70% each time.
Regarding `c1ccc2sc(-c3cnc4[nH]cc(-c5ccnc(NC6CCCC6)n5)c4c3)cc2c1` [1A38, 4-(5-(benzo[b]thiophen-2-yl)-1H-pyrrolo[2,3-b]pyridin-3-yl)-N-cyclopentylpyrimidin-2-amine], the inhibition at 0.5 µM in assay [1] (setting [3]), in assay [1] (setting [4]), in assay [2] (setting [5]) and in assay [2] (setting [6]) was more than 50% each time.
Regarding `c1ccc2[nH]c(-c3cnc4[nH]cc(-c5ccnc(NC6CCCC6)n5)c4c3)cc2c1` [1A39, 4-(5-(1H-indol-2-yl)-1H-pyrrolo[2,3-b]pyridin-3-yl)-N-cyclopentylpyrimidin-2-amine], the inhibition at 0.5 µM in assay [1] (setting [3]), in assay [1] (setting [4]), in assay [2] (setting [5]) and in assay [2] (setting [6]) was more than 50% each time.
Turning to `c1ccc2c(-c3cnc4[nH]cc(-c5ccnc(NC6CCCC6)n5)c4c3)nccc2c1` [1A40, N-cyclopentyl-4-(5-(isoquinolin-1-yl)-1H-pyrrolo[2,3-b]pyridin-3-yl)pyrimidin-2-amine], the inhibition at 0.5 µM in assay [1] (setting [3]), in assay [1] (setting [4]), in assay [2] (setting [5]) and in assay [2] (setting [6]) was more than 50% in each case.
Consider `FC(F)(F)Oc1ccc(-c2cnc3[nH]cc(-c4ccnc(NC5CCCCCC5)n4)c3c2)cc1` [1A43, N-cycloheptyl-4-(5-(4-(trifluoromethoxy)phenyl)-1H-pyrrolo[2,3-b]pyridin-3-yl)pyrimidin-2-amine], for which the inhibition at 0.5 µM in assay [1] (setting [3]), in assay [1] (setting [4]), in assay [2] (setting [5]) and in assay [2] (setting [6]) was more than 50% throughout.
Regarding `FC(F)(F)c1cccc(-c2cnc3[nH]cc(-c4ccnc(NC5CCCCCC5)n4)c3c2)c1` [1A44, N-cycloheptyl-4-(5-(3-(trifluoromethyl)phenyl)-1H-pyrrolo[2,3-b]pyridin-3-yl)pyrimidin-2-amine], the inhibition at 0.5 µM is more than 70% in assay [1] (setting [3]) and more than 50% in assay [2] (setting [5]).
On to `Fc1cccc(-c2cnc3[nH]cc(-c4ccnc(NC5CCCCCC5)n4)c3c2)c1` [1A45, N-cycloheptyl-4-(5-(3-fluorophenyl)-1H-pyrrolo[2,3-b]pyridin-3-yl)pyrimidin-2-amine], for which the inhibition at 0.5 µM in assay [1] (setting [3]) and in assay [2] (setting [5]) was more than 70% each time.
As to `Cc1ccc(-c2cnc3[nH]cc(-c4ccnc(NC5CCCCCC5)n4)c3c2)cc1` [1A46, N-cycloheptyl-4-(5-(p-tolyl)-1H-pyrrolo[2,3-b]pyridin-3-yl)pyrimidin-2-amine], the inhibition at 0.5 µM in assay [1] (setting [3]), in assay [1] (setting [4]), in assay [2] (setting [5]) and in assay [2] (setting [6]) was more than 50% in each case.
Consider `Cc1cccc(-c2cnc3[nH]cc(-c4ccnc(NC5CCCCCC5)n4)c3c2)c1` [1A47, N-cycloheptyl-4-(5-(m-tolyl)-1H-pyrrolo[2,3-b]pyridin-3-yl)pyrimidin-2-amine], for which the inhibition at 0.5 µM in assay [1] (setting [3]), in assay [1] (setting [4]), in assay [2] (setting [5]) and in assay [2] (setting [6]) was more than 50% in each case.
Take `CSc1ccc(-c2cnc3[nH]cc(-c4ccnc(NC5CCCCCC5)n4)c3c2)cc1` [1A48, N-cycloheptyl-4-(5-(4-(methylthio)phenyl)-1H-pyrrolo[2,3-b]pyridin-3-yl)pyrimidin-2-amine]: the inhibition at 0.5 µM in assay [1] (setting [3]), in assay [1] (setting [4]), in assay [2] (setting [5]) and in assay [2] (setting [6]) was more than 50% in each case.
In the case of `CSc1ccccc1-c1cnc2[nH]cc(-c3ccnc(NC4CCCCCC4)n3)c2c1` [1A49, N-cycloheptyl-4-(5-(2-(methylthio)phenyl)-1H-pyrrolo[2,3-b]pyridin-3-yl)pyrimidin-2-amine], the inhibition at 0.5 µM in assay [1] (setting [7]) and in assay [2] (setting [8]) was less than 50% in each case.
In the case of `CCc1ccccc1-c1cnc2[nH]cc(-c3ccnc(NC4CCCCCC4)n3)c2c1` [1A50, N-cycloheptyl-4-(5-(2-ethylphenyl)-1H-pyrrolo[2,3-b]pyridin-3-yl)pyrimidin-2-amine], the inhibition at 0.5 µM in assay [1] (setting [7]), in assay [1] (setting [4]), in assay [2] (setting [8]) and in assay [2] (setting [6]) was more than 70% throughout.
Regarding `Clc1ccc(-c2cnc3[nH]cc(-c4ccnc(NC5CCCCCC5)n4)c3c2)cc1` [1A52, 4-(5-(4-chlorophenyl)-1H-pyrrolo[2,3-b]pyridin-3-yl)-N-cycloheptylpyrimidin-2-amine], the inhibition at 0.5 µM in assay [1] (setting [7]), in assay [1] (setting [4]), in assay [2] (setting [8]) and in assay [2] (setting [6]) was more than 70% in each case.
As for `O=Cc1ccc(-c2cnc3[nH]cc(-c4ccnc(NC5CCCCCC5)n4)c3c2)cc1` [1A53, 4-(3-(2-(cycloheptylamino)pyrimidin-4-yl)-1H-pyrrolo[2,3-b]pyridin-5-yl)benzaldehyde], the inhibition at 0.5 µM in assay [1] (setting [7]), in assay [1] (setting [4]), in assay [2] (setting [8]) and in assay [2] (setting [6]) was more than 70% throughout.
For `c1ccc2c(-c3cnc4[nH]cc(-c5ccnc(NC6CCCCCC6)n5)c4c3)cccc2c1` [1A54, N-cycloheptyl-4-(5-(naphthalen-1-yl)-1H-pyrrolo[2,3-b]pyridin-3-yl)pyrimidin-2-amine], the inhibition at 0.5 µM in assay [1] (setting [7]), in assay [1] (setting [4]), in assay [2] (setting [8]) and in assay [2] (setting [6]) was more than 70% in each case.
Take `c1cc(-c2c[nH]c3ncc(-c4ccoc4)cc23)nc(NC2CCCCCC2)n1` [1A56, N-cycloheptyl-4-(5-(furan-3-yl)-1H-pyrrolo[2,3-b]pyridin-3-yl)pyrimidin-2-amine]: the inhibition at 0.5 µM in assay [1] (setting [7]), in assay [1] (setting [4]), in assay [2] (setting [8]) and in assay [2] (setting [6]) was more than 70% throughout.
Take `COc1ccc2[nH]c(-c3cnc4[nH]cc(-c5ccnc(NC6CCCCCC6)n5)c4c3)cc2c1` [1A57, N-cycloheptyl-4-(5-(5-methoxy-1H-indol-2-yl)-1H-pyrrolo[2,3-b]pyridin-3-yl)pyrimidin-2-amine]: the inhibition at 0.5 µM in assay [1] (setting [7]), in assay [1] (setting [4]), in assay [2] (setting [8]) and in assay [2] (setting [6]) was more than 70% throughout.
Turning to `c1ccc2sc(-c3cnc4[nH]cc(-c5ccnc(NC6CCCCCC6)n5)c4c3)cc2c1` [1A58, 4-(5-(benzo[b]thiophen-2-yl)-1H-pyrrolo[2,3-b]pyridin-3-yl)-N-cycloheptylpyrimidin-2-amine], the inhibition at 0.5 µM in assay [1] (setting [7]), in assay [1] (setting [4]), in assay [2] (setting [8]) and in assay [2] (setting [6]) was more than 70% throughout.
Turning to `c1ccc2[nH]c(-c3cnc4[nH]cc(-c5ccnc(NC6CCCCCC6)n5)c4c3)cc2c1` [1A59, 4-(5-(1H-indol-2-yl)-1H-pyrrolo[2,3-b]pyridin-3-yl)-N-cycloheptylpyrimidin-2-amine], the inhibition at 0.5 µM in assay [1] (setting [7]), in assay [1] (setting [4]), in assay [2] (setting [8]) and in assay [2] (setting [6]) was more than 70% each time.
Regarding `c1ccc2c(-c3cnc4[nH]cc(-c5ccnc(NC6CCCCCC6)n5)c4c3)nccc2c1` [1A60, N-cycloheptyl-4-(5-(isoquinolin-1-yl)-1H-pyrrolo[2,3-b]pyridin-3-yl)pyrimidin-2-amine], the inhibition at 0.5 µM in assay [1] (setting [7]), in assay [1] (setting [4]), in assay [2] (setting [8]) and in assay [2] (setting [6]) was more than 70% in each case.
As for `FC(F)(F)Oc1ccc(-c2cnc3[nH]cc(-c4ccnc(NCCc5ccccc5)n4)c3c2)cc1` [1B3, N-phenethyl-4-(5-(4-(trifluoromethoxy)phenyl)-1H-pyrrolo[2,3-b]pyridin-3-yl)pyrimidin-2-amine], the inhibition at 0.5 µM in assay [1] (setting [7]), in assay [1] (setting [4]), in assay [2] (setting [8]) and in assay [2] (setting [6]) was more than 50% each time.
